# Experimental data reported in ChEMBL document CHEMBL1140776, “Parasiticidal 2-alkoxy- and 2-aryloxyiminoalkyl trifluoromethanesulfonanilides” (2008).
# Key:
# Format in all cases: functional
# Ctenocephalides felis [1] = assay: Parasiticidal activity against Ctenocephalides felis assessed as mortality after 24 hrs by cat flea assay; set-up: concentration or dose not given beside the values
# Haemonchus contortus = assay: Parasiticidal activity against Haemonchus contortus by larval assay
# Rhipicephalus sanguineus [2] = assay: Parasiticidal activity against Rhipicephalus sanguineus assessed as mortality after 24 hrs by brown dog tick assay; set-up: concentration or dose not given beside the values
# Rhipicephalus sanguineus [3] = assay: Parasiticidal activity against Rhipicephalus sanguineus assessed per tick by brown dog tick assay
# Ctenocephalides felis [4] = assay: Parasiticidal activity against Ctenocephalides felis by cat flea assay
SMILES,Activity (Ctenocephalides felis [1]) [%],LD99 (Haemonchus contortus) [µM],Activity (Rhipicephalus sanguineus [2]) [%],LD50 (Rhipicephalus sanguineus [3]) [µg],LC50 (Ctenocephalides felis [4]) [ng/cm2]
C/C(=N\Oc1cccc(C(F)(F)F)c1)c1cc(Cl)ccc1NS(=O)(=O)C(F)(F)F,96,0.83,–,–,–
C/C(=N\Oc1ccc(Cl)cc1)c1cc(Cl)ccc1NS(=O)(=O)C(F)(F)F,90,1,–,–,–
C/C(=N\OCC1CC1)c1cc(Cl)ccc1NS(=O)(=O)C(F)(F)F,100,–,100,1,5
N#Cc1nn(-c2c(Cl)cc(C(F)(F)F)cc2Cl)c(N)c1[S+]([O-])C(F)(F)F (stereo unspecified) [FIPRONIL],–,–,–,–,0.1
CC/C(=N\OCC1CC1)c1cc(Cl)ccc1NS(=O)(=O)C(F)(F)F,100,36,100,1.2,8
C/C(=N\OC(C)C)c1cc(Cl)ccc1NS(=O)(=O)C(F)(F)F,100,–,95,–,–
CCO/N=C(\C)c1ccc(F)cc1NS(=O)(=O)C(F)(F)F,100,>15,8,–,–
O=S(=O)(Nc1ccc(Cl)cc1/C=N/OCc1ccc(Cl)c(Cl)c1)C(F)(F)F,42,1.4,–,–,–
C/C(=N\OC1CCCC1)c1cc(Cl)ccc1NS(=O)(=O)C(F)(F)F,100,–,100,–,–
O=S(=O)(Nc1ccc(Cl)cc1/C(=N/Oc1ccc(F)cc1)c1ccccc1)C(F)(F)F,21,–,–,–,–
C/C(=N\Oc1ccc(F)cc1)c1cc(Cl)ccc1NS(=O)(=O)C(F)(F)F,100,4.6,100,1.3,10
CC/C(=N\OCc1cccs1)c1cc(Cl)ccc1NS(=O)(=O)C(F)(F)F,100,35,70,2.5,7
CCC/C(=N\OC1CCCCC1)c1cc(Cl)ccc1NS(=O)(=O)C(F)(F)F,43,–,–,–,–
CCO/N=C(\C)c1cccc(OC)c1NS(=O)(=O)C(F)(F)F,45,>15,–,–,–
CC/C(=N\Oc1cccc(C(F)(F)F)c1)c1cc(Cl)ccc1NS(=O)(=O)C(F)(F)F,71,2,–,–,–
CCO/N=C(\C)c1ccccc1NS(=O)(=O)C(F)(F)F,92,>16,90,–,–
CC/C(=N\Oc1ccc(F)cc1)c1cc(Cl)ccc1NS(=O)(=O)C(F)(F)F,100,3.5,92,1.5,35

SMILES,Activity (Ctenocephalides felis [1]) [%],LD99 (Haemonchus contortus) [µM],Activity (Rhipicephalus sanguineus [2]) [%],LD50 (Rhipicephalus sanguineus [3]) [µg],LC50 (Ctenocephalides felis [4]) [ng/cm2]
CC/C(=N\OC(C)C)c1cc(Cl)ccc1NS(=O)(=O)C(F)(F)F,100,–,100,–,–
CC/C(=N\OC(C)(C)C)c1cc(Cl)ccc1NS(=O)(=O)C(F)(F)F,100,–,90,1.5,43
CC/C(=N\Oc1ccc(Cl)cc1)c1cc(Cl)ccc1NS(=O)(=O)C(F)(F)F,100,1,95,–,51
C/C(=N\OCC1CCCCC1)c1cc(Cl)ccc1NS(=O)(=O)C(F)(F)F,96,–,100,–,–
C#CCO/N=C(\C)c1cc(Cl)ccc1NS(=O)(=O)C(F)(F)F,100,–,100,0.99,11
CCC/C(=N\OCC1CCCCC1)c1cc(Cl)ccc1NS(=O)(=O)C(F)(F)F,70,11,–,–,–
CC/C(=N\OC1CCCCC1)c1cc(Cl)ccc1NS(=O)(=O)C(F)(F)F,100,–,100,5.7,–
O=S(=O)(Nc1ccc(Cl)cc1/C(=N/OCC1CCCCC1)c1ccccc1)C(F)(F)F,8,–,52,–,–
CC/C(=N\OCc1ccc(Cl)cc1)c1cc(Cl)ccc1NS(=O)(=O)C(F)(F)F,100,1.7,83,2.5,12
CC/C(=N\Oc1ccc(Br)cc1)c1cc(Cl)ccc1NS(=O)(=O)C(F)(F)F,78,3.7,–,–,–
CC(C)/C(=N\Oc1ccc(F)cc1)c1cc(Cl)ccc1NS(=O)(=O)C(F)(F)F,100,–,42,–,–
C/C(=N\Oc1cccc(Cl)c1)c1cc(Cl)ccc1NS(=O)(=O)C(F)(F)F,100,3.8,47,–,–
C/C(=N\OC1CCCCC1)c1ccc(C(F)(F)F)cc1NS(=O)(=O)C(F)(F)F,4,–,–,–,–
CC/C(=N\OCc1ccccc1C(F)(F)F)c1cc(Cl)ccc1NS(=O)(=O)C(F)(F)F,96,2.7,31,–,36
CC/C(=N\OCc1ccc(Cl)c(Cl)c1)c1cc(Cl)ccc1NS(=O)(=O)C(F)(F)F,100,1.3,–,–,–
CC/C(=N\OCc1cccc(Cl)c1Cl)c1cc(Cl)ccc1NS(=O)(=O)C(F)(F)F,63,0.63,–,–,–
